Legend:
[1] = molecular target: T1, p38-γ (Homo sapiens, UniProt P53778); test: Kinase specificity: p38-γ; format: biochemical; conditions: tested at 50 μM; approximate IC50(app)=A×i/(1−A)
T1 sequence (P53778 1-367): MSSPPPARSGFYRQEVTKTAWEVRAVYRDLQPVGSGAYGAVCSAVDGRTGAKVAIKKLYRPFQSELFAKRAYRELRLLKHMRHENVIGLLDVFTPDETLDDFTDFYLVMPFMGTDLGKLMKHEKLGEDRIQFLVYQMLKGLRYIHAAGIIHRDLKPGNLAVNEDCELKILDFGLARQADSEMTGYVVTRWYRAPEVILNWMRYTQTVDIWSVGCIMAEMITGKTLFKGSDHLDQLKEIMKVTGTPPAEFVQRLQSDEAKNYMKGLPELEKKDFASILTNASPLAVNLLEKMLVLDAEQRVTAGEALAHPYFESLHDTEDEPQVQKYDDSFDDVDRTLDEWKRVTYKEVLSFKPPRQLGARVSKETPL
Method: (§1) IC50 values were determined with curve-fitting plots available with common softeware packages. Approximate IC50 values were calculated using formula IC50(app)=A×i/(1−A) where A=fractional activity and i=total inhibitor concentration.
(§2) Compounds 5 and 7 were tested for their specificity for p38 by assessing their ability to inhibit other kinases. These compounds were tested at 50 μM and were soluble at 250 μM in 5% DMSO/95% water.

[2] = molecular target: JNK1 (Homo sapiens, UniProt P45983); test: Kinase specificity: JNK1; format: biochemical; conditions: tested at 50 μM; approximate IC50(app)=A×i/(1−A)
Method: as §1, §2

[3] = molecular target: PKA (Homo sapiens, UniProt P17612); test: Kinase specificity: PKA; format: biochemical; conditions: tested at 50 μM; approximate IC50(app)=A×i/(1−A)
Method: as §1, §2

[4] = molecular target: PKC; test: Kinase specificity: PKC; format: biochemical; conditions: tested at 50 μM; approximate IC50(app)=A×i/(1−A)
Method: as §1, §2

[5] = molecular target: DNA-dep PK (PKD) (Homo sapiens, UniProt P78527); test: Kinase specificity: DNA-dep PK; format: biochemical; conditions: tested at 50 μM; approximate IC50(app)=A×i/(1−A)
Method: as §1, §2

[6] = molecular target: cck2; test: Kinase specificity: cck2; format: biochemical; conditions: tested at 50 μM; approximate IC50(app)=A×i/(1−A)
Method: as §1, §2

[7] = molecular target: EGF-R (Homo sapiens, UniProt P00533); test: Kinase specificity: EGF-R; format: biochemical; conditions: tested at 50 μM; approximate IC50(app)=A×i/(1−A)
Method: as §1, §2

[8] = molecular target: p38-β (Homo sapiens, UniProt Q15759); test: p38-β inhibition; format: biochemical; conditions: curve fitted
Method: as §1

[9] = Solubility in 5% DMSO/95% water; format: physicochemical; conditions: aqueous with cosolvent or surfactant or cyclodextrin, read-out: soluble at
Method: as §2

p38-β, sequence (Q15759 whole entry): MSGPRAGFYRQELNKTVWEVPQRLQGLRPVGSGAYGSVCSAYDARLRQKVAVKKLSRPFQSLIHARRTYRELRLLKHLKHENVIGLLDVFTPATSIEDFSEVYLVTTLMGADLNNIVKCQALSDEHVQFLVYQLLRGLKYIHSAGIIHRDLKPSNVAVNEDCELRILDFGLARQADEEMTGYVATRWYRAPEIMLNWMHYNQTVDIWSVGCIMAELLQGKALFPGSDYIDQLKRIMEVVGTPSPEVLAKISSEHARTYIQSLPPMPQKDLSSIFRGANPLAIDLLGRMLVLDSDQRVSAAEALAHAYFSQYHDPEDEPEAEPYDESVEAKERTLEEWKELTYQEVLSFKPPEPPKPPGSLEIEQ
JNK1, sequence (P45983 whole entry, species assumed): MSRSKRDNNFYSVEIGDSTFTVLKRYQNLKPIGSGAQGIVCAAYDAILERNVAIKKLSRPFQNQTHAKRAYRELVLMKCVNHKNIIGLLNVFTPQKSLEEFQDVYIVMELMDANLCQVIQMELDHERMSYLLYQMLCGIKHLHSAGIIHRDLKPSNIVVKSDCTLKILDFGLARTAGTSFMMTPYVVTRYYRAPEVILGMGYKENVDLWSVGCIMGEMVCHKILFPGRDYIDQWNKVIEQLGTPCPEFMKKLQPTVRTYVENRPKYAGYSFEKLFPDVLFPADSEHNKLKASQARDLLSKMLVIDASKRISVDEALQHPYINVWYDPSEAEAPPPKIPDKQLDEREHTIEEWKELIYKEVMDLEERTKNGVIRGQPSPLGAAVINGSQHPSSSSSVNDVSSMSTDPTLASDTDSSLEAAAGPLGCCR
EGF-R, sequence (P00533 25-1210, species assumed): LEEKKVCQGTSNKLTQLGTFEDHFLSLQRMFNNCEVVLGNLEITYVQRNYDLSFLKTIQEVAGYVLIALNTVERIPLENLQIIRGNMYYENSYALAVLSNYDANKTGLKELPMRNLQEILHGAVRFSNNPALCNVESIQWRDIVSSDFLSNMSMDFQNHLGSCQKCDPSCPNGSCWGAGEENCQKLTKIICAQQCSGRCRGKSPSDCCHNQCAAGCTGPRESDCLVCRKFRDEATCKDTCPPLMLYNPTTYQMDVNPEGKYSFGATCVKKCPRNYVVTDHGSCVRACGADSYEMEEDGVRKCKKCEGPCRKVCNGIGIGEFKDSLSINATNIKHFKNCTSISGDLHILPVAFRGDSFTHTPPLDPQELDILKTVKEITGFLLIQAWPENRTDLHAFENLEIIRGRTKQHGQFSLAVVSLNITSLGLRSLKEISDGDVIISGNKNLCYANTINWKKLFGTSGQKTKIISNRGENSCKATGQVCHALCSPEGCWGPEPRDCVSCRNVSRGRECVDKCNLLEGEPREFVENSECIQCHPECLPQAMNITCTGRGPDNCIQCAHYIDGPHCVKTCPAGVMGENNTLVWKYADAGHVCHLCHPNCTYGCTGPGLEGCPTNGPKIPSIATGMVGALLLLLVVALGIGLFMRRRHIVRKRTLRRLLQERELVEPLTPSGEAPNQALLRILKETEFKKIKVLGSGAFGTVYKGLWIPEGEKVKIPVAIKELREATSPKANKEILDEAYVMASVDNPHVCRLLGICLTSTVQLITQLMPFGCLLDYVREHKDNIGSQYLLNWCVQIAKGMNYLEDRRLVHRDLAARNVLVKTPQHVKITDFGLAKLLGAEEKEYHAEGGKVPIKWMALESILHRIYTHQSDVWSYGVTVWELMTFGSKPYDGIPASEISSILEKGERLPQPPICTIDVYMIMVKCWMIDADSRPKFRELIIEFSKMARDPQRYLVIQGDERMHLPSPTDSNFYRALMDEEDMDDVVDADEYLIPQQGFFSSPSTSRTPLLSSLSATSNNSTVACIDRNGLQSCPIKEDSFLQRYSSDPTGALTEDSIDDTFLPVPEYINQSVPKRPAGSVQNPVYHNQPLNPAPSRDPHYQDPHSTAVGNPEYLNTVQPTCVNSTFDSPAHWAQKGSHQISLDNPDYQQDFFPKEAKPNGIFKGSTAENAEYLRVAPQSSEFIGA

SMILES | IC50 [1] | IC50 [2] | IC50 [3] | IC50 [4] | IC50 [5] | IC50 [6] | IC50 [7] | IC50 [8] | solubility [9]
Fc1ccccc1-c1nc(Nc2ccncc2)c2ccccc2n1 [Compound 5, 2-(2-fluorophenyl)-4-(4-pyridylamino)-quinazoline] | 227 µM | 167 µM | > 250 µM | > 100 µM | 120 µM | 245 µM | 4.2 µM | 0.928 µM | ≥ 250 µM
c1ccc(-c2nc(Nc3ccncc3)c3ccccc3n2)cc1 [Compound 7, 2-phenyl-4-(4-pyridylamino)-quinazoline] | > 300 µM | > 300 µM | 310 µM | > 500 µM | 240 µM | > 500 µM | 34 µM | 3.65 µM | ≥ 250 µM

Source: patent publication US6903096B2, “Quinazoline derivatives as medicaments” (Scios, Inc., priority 1998, dated 2005)
